In US5034311A, “Photographic elements containing release compounds I” (Eastman Kodak Company, priority 1990, dated 1991):

Assay: Rate of tetrazole inhibitor release from timing group compounds in micellar solution (HPLC of free inhibitor and residual timing group compound)
Assay type: physicochemical
Settings: inhibitor release, pH 13.5, (+10%)
Protocol: Rates of tetrazole release were measured for several timing group compounds which are representative of fragments that are generated by reaction of a coupler of this invention with oxidized developer during photographic processing. These solution measurements are a useful indication of photographic performance. Lower values of inhibitor release half-lives in solution correlate with greater development inhibition effects in film.
For a given measurement, 12.5 μmol of the timing group compound was dissolved in 3.2 mL of reduced Triton X-100 surfactant plus one drop glacial acetic acid plus approximately 5 mL methylene chloride (to facilitate dissolution of the timing group compound in surfactant). After methylene chloride was evaporated under partial vacuum, water (approximately 15 mL) was added and the mixture was vigorously agitated with a vortex mixer to create micelles. This miscellar solution was then diluted to 25 mL with water and mixed again. Inhibitor release kinetics were initiated by mixing 2 mL of the above micellar solution with an equal volume of an aqueous potassium hydroxide solution (0.75 mol KOH/L), producing a reaction mixture with a pH of about 13.5. At intervals, portions of the reaction mixture were quenched by the addition of 1 mL 30% aqueous acetic acid. The quenched mixture was then analyzed by high performance liquid chromatography to determine the concentrations of free inhibitor and residual timing group compound. First-order reaction rate constants were calculated from these concentration versus time data, and the reaction half-life, t1/2, was calculated with the expression t1/2 =0.693/k, where k is the observed rate constant. […] In the following table -INH signifies the inhibitor of the structure

In order of falling “Half-Life at pH 13.5” value:
1. CCCCCCCOc1ccc(-c2nnn(C3CCCCc4cc(O)ccc43)n2)cc1 (stereo not drawn)  250 sec
2. CCCCCCCOc1ccc(-c2nnn(C3c4ccc(O)cc4CCC3(C)C)n2)cc1 (stereo not drawn)  100 sec
3. CCCCCCCOc1ccc(-c2nnn(C3CCc4cc(O)ccc43)n2)cc1 (stereo not drawn)  30 sec
4. CCCCCCCOc1ccc(-c2nnn(C3CCCc4cc(O)ccc43)n2)cc1 (stereo not drawn)  15 sec
5. CCCCCCCOc1ccc(-c2nnn(C3CCOc4cc(O)ccc43)n2)cc1 (stereo not drawn)  9 sec

In the case of CCCCCCCOc1ccc(-c2nnn(Cc3ccc(O)cc3)n2)cc1 [reference compound], the “Half-Life at pH 13.5” value is reported as 29,000 sec.
